Data as given in patent US10316017B2, “COT modulators and methods of use thereof” (Gilead Sciences, Inc., priority 2015, dated 2019).

Columns and labels:
[1] = tested on: TNFα production in LPS-stimulated human monocytes; assay: Cot Monocyte TNFα Cell Based Assay; conditions: Homo sapiens, Monocyte, TNFα in LPS-stimulated human monocytes; read-out: EC50 TNF
Method in brief: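 Cells at 5,000/well were pretreated with compound for 1 h at 37 °C (0.5% DMSO final), then stimulated with 50 pg/ml LPS for 4 h at 37 °C. Supernatant TNFα was measured by two-antibody TR-FRET after overnight room-temperature incubation; values are percent of control between unstimulated and stimulated wells.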

[2] = target: T1, human Cot catalytic domain (30-397 amino acids) (Homo sapiens, UniProt P41279); assay: High Throughput Cot Biochemical Assay (KinEASE TR-FRET); conditions: Cot biochemical HTRF (KinEASE TR-FRET) assay; read-out: IC50 HTRF
T1 construct: Purified recombinant human Cot catalytic domain (30-397 amino acids) was purchased from Cama Biosciences; purchased Cama Biosciences (so in the source)
T1 sequence (P41279 30-397): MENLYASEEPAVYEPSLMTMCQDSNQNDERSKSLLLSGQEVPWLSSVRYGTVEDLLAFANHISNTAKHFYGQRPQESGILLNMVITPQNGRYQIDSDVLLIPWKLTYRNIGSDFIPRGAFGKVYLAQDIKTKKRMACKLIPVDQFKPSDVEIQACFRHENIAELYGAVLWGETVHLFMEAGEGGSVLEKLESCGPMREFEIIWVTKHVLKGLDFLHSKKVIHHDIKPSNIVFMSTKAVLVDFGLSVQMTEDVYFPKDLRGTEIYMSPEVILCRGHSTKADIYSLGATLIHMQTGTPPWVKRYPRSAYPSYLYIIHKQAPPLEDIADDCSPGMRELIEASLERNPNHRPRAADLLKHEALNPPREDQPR
Method in brief: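 Reaction of 5 nM recombinant human Cot catalytic domain (aa 30-397) with 1 μM STK3 peptide (XL665-labeled) and 400 μM ATP in 10 mM MOPS pH 7.0, 10 mM MgOAc, 1 mM DTT, 0.5 mg/mL BSA, 0.1% DMSO. Phosphopeptide detected by TR-FRET with europium anti-phospho antibody.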

EC50 [1]	IC50 [2]	Structure (SMILES)
708 nM	41 nM	N#Cc1cnc2c(Cl)cc(N[C@@H](c3ccccc3)c3c[nH]nn3)cc2c1Nc1cccc(Cl)c1F [Example 613, (S)-8-chloro-4-((3-chloro-2-fluorophenyl)amino)-6-((phenyl(1H-1,2,3-triazol-4-yl)methyl)amino)quinoline-3-carbonitrile]
1110 nM	123 nM	N#Cc1cnc2c(Cl)cc(N[C@@H](c3ccc(Cl)cc3)c3c[nH]nn3)cc2c1Nc1ccc(O)c(Cl)c1 [Example 614, (S)-8-chloro-4-((3-chloro-4-hydroxyphenyl)amino)-6-(((4-chlorophenyl)(1H-1,2,3-triazol-4-yl)methyl)amino)quinoline-3-carbonitrile]
96 nM	6 nM	CNc1cccc([C@H](Nc2cc(Cl)c3ncc(C#N)c(Nc4ccc(F)c(Cl)c4)c3c2)c2cn(C3CCN(C(C)(C)C)CC3)nn2)c1 [Example 620, (S)-6-(((1-(1-(tert-butyl)piperidin-4-yl)-1H-1,2,3-triazol-4-yl)(3-(methylamino)phenyl)methyl)amino)-8-chloro-4-((3-chloro-4-fluorophenyl)amino)quinoline-3-carbonitrile]
1160 nM	116 nM	N#Cc1cnc2c(Cl)cc(N[C@@H](c3ccccc3)c3cn(C4CCN(C5COC5)CC4)nn3)cc2c1Nc1ccc(Cl)c(Cl)c1F [Example 625, (S)-8-chloro-4-((3,4-dichloro-2-fluorophenyl)amino)-6-(((1-(1-(oxetan-3-yl)piperidin-4-yl)-1H-1,2,3-triazol-4-yl)(phenyl)methyl)amino) quinoline-3-carbonitrile]
> 50000 nM	784 nM	CC[C@@H](Nc1c(C#N)cnc2c(Cl)cc(N[C@H](c3ccccc3)c3c[nH]nn3)cc12)c1ccccc1 [Example 626, 8-chloro-6-(((R)-phenyl(1H-1,2,3-triazol-4-yl)methyl)amino)-4-(((R)-1-phenylpropyl)amino) quinoline-3-carbonitrile]
456 nM	16 nM	CC[C@@H](Nc1c(C#N)cnc2c(Cl)cc(N[C@@H](c3ccccc3)c3c[nH]nn3)cc12)c1ccccc1 [Example 627, 8-chloro-6-(((S)-phenyl(1H-1,2,3-triazol-4-yl)methyl)amino)-4-(((R)-1-phenylpropyl)amino) quinoline-3-carbonitrile]
109 nM	7 nM	CC(C)(C)N1CCC(n2cc([C@@H](Nc3cc(Cl)c4ncc(C#N)c(Nc5cccc(Cl)c5F)c4c3)c3ccccc3)nn2)CC1 [Example 628, (S)-6-(((1-(1-(tert-butyl)piperidin-4-yl)-1H-1,2,3-triazol-4-yl)(phenyl)methyl)amino)-8-chloro-4-((3-chloro-2-fluorophenyl)amino)quinoline-3-carbonitrile]
1080 nM	166 nM	N#Cc1cnc2c(Cl)cc(N[C@@H](c3ccc(Cl)cc3)c3c[nH]nn3)cc2c1Nc1ccc(F)c(F)c1F [Example 631, (S)-8-chloro-6-(((4-chlorophenyl)(1H-1,2,3-triazol-4-yl)methyl)amino)-4-((2,3,4-trifluorophenyl)amino)quinoline-3-carbonitrile]

The remaining lines, values behind:

Structure (SMILES)	EC50 [1]	IC50 [2]
CC(C)(C)N1CCC(n2cc([C@@H](Nc3cc(Cl)c4ncc(C#N)c(Nc5ccsc5Cl)c4c3)c3ccccc3)nn2)CC1 [Example 611, (S)-6-(((1-(1-(tert-butyl)piperidin-4-yl)-1H-1,2,3-triazol-4-yl)(phenyl)methyl)amino)-8-chloro-4-((2-chlorothiophen-3-yl)amino)quinoline-3-carbonitrile]	369 nM	51 nM
CC(C)(C)N1CCC(n2cc([C@@H](Nc3cc(Cl)c4ncc(C#N)c(Nc5cscc5Cl)c4c3)c3ccccc3)nn2)CC1 [Example 612, (S)-6-(((1-(1-(tert-butyl)piperidin-4-yl)-1H-1,2,3-triazol-4-yl)(phenyl)methyl)amino)-8-chloro-4-((4-chlorothiophen-3-yl)amino)quinoline-3-carbonitrile]	2020 nM	84 nM
CC1(Nc2c(C#N)cnc3c(Cl)cc(N[C@@H](c4ccccc4)c4cn(C5CCN(C(C)(C)C)CC5)nn4)cc23)CCCCCC1 [Example 615, (S)-6-(((1-(1-(tert-butyl)piperidin-4-yl)-1H-1,2,3-4-yl)(phenyl)methyl)amino)-8-chloro-4-((1-methylcycloheptyl)amino) quinoline-3-carbonitrile]	719 nM	141 nM
CC(C)(C)N1CCC(n2cc([C@@H](Nc3cc(Cl)c4ncc(C#N)c(NCc5ccccc5Cl)c4c3)c3ccccc3)nn2)CC1 [Example 616, (S)-6-(((1-(1-(tert-butyl)piperidin-4-yl)-1H-1,2,3-triazol-4-yl)(phenyl)methyl)amino)-8-chloro-4-((2-chlorobenzyl)amino)quinoline-3-carbonitrile]	2180 nM	40 nM
CC(C)(C)N1CCC(n2cc([C@@H](Nc3cc(Cl)c4ncc(C#N)c(NCc5cccc(F)c5F)c4c3)c3ccccc3)nn2)CC1 [Example 617, (S)-6-(((1-(1-(tert-butyl)piperidin-4-yl)-1H-1,2,3-triazol-4-yl)(phenyl)methyl)amino)-8-chloro-4-((2,3-difluorobenzyl)amino)quinoline-3-carbonitrile]	12300 nM	43 nM
CC(C)(C)N1CCC(n2cc([C@@H](Nc3cc(Cl)c4ncc(C#N)c(NCc5ccccc5F)c4c3)c3ccccc3)nn2)CC1 [Example 618, (S)-6-(((1-(1-(tert-butyl)piperidin-4-yl)-1H-1,2,3-triazol-4-yl)(phenyl)methyl)amino)-8-chloro-4-((2-fluorobenzyl)amino)quinoline-3-carbonitrile]	1700 nM	53 nM
C[C@@H](Nc1c(C#N)cnc2c(Cl)cc(N[C@@H](c3ccccc3)c3cn(C4CCN(C(C)(C)C)CC4)nn3)cc12)c1ccccc1F [Example 619, 6-(((S)-(1-(1-(tert-butyl)piperidin-4-yl)-1H-1,2,3-triazol-4-yl)(phenyl)methyl)amino)-8-chloro-4-(((R)-1-(2-fluorophenyl)ethyl)amino) quinoline-3-carbonitrile]	826 nM	16 nM
COC1CN(C(=O)c2cccc([C@H](Nc3cc(Cl)c4ncc(C#N)c(Nc5ccc(F)c(Cl)c5)c4c3)c3cn(C4CCN(C(C)(C)C)CC4)nn3)c2)C1 [Example 621, (S)-6-(((1-(1-(tert-butyl)piperidin-4-yl)-1H-1,2,3-triazol-4-yl)(3-(3-methoxyazetidine-1-carbonyl)phenyl)methyl)amino)-8-chloro-4-((3-chloro-4-fluorophenyl)amino)quinoline-3-carbonitrile]	112 nM	2 nM
CN(C)C1CN(C(=O)c2cccc([C@H](Nc3cc(Cl)c4ncc(C#N)c(Nc5ccc(F)c(Cl)c5)c4c3)c3cn(C4CCN(C(C)(C)C)CC4)nn3)c2)C1 [Example 622, (S)-6-(((1-(1-(tert-butyl)piperidin-4-yl)-1H-1,2,3-triazol-4-yl)(3-(3-(dimethylamino)azetidine-1-carbonyl)phenyl)methyl)amino)-8-chloro-4-((3-chloro-4-fluorophenyl)amino)quinoline-3-carbonitrile]	851 nM	5 nM
CC(=O)N(C)c1cccc([C@H](Nc2cc(Cl)c3ncc(C#N)c(Nc4ccc(F)c(Cl)c4)c3c2)c2cn(C3CCN(C(C)(C)C)CC3)nn2)c1 [Example 623, (S)-N-(3-((1-(1-(tert-butyl)piperidin-4-yl)-1H-1,2,3-triazol-4-yl)((8-chloro-4-((3-chloro-4-fluorophenyl)amino)-3-cyanoquinolin-6-yl)amino)methyl)phenyl)-N-methylacetamide]	90 nM	1 nM
CC(=O)Nc1cccc([C@H](Nc2cc(Cl)c3ncc(C#N)c(Nc4ccc(F)c(Cl)c4)c3c2)c2cn(C3CCN(C(C)(C)C)CC3)nn2)c1 [Example 624, (S)-N-(3-((1-(1-(tert-butyl)piperidin-4-yl)-1H-1,2,3-triazol-4-yl)((8-chloro-4-((3-chloro-4-fluorophenyl)amino)-3-cyanoquinolin-6-yl)amino)methyl)phenyl)acetamide]	266 nM	3 nM
CC[C@@H](Nc1c(C#N)cnc2c(Cl)cc(N[C@@H](c3ccccc3)c3cn(C4CCN(C(C)(C)C)CC4)nn3)cc12)c1ccccc1 [Example 629, 6-(((S)-(1-(1-(tert-butyl)piperidin-4-yl)-1H-1,2,3-triazol-4-yl)(phenyl)methyl)amino)-8-chloro-4-(((R)-1-phenylpropyl)amino)quinoline-3-carbonitrile]	72 nM	3 nM
Cn1ccnc1-c1cccc([C@H](Nc2cc(Cl)c3ncc(C#N)c(Nc4ccc(F)c(Cl)c4)c3c2)c2cn(C3CCN(C(C)(C)C)CC3)nn2)c1 [Example 630, (S)-6-(((1-(1-(tert-butyl)piperidin-4-yl)-1H-1,2,3-triazol-4-yl)(3-(1-methyl-1H-imidazol-2-yl)phenyl)methyl)amino)-8-chloro-4-((3-chloro-4-fluorophenyl)amino)quinoline-3-carbonitrile]	1630 nM	3 nM
CC(C)(C)N1CCC(n2cc([C@@H](Nc3cc(Cl)c4ncc(C#N)c(Nc5ccc(F)c(Cl)c5)c4c3)c3cccc(-c4nccs4)c3)nn2)CC1 [Example 632, (S)-6-(((1-(1-(tert-butyl)piperidin-4-yl)-1H-1,2,3-triazol-4-yl)(3-(thiazol-2-yl)phenyl)methyl)amino)-8-chloro-4-((3-chloro-4-fluorophenyl)amino)quinoline-3-carbonitrile]	163 nM	3 nM
